The source of these data is the METLIN SMRT retention time set (Domingo-Almenara et al. 2019).

A short description of the data set: gradient 5% acetonitrile 3 min, to 50% in 2 min, to 85% in 15 min, held 3 min, 100 µL/min. Conditions: column: Zorbax Extend-C18 2.1 x 50 mm; eluents: water / acetonitrile, 0.1% formic acid. The gist of the method:
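The system's dead and dwell volumes were 40 μL and 900 μL, with a Zorbax Extend-C18 column (2.1 × 50 mm, 1.8 μm) run at 100 μL/min in water and acetonitrile containing 0.1% formic acid each. Pure standards were analyzed in mixtures of ~100 molecules by HPLC–quadrupole time-of-flight mass spectrometry in positive and negative ionization mode. Retention time was assigned from computationally picked, manually inspected adduct peaks.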
For `O=C(CN1CCN(Cc2ccc(F)cc2)C1=O)NCc1cc(F)cc(F)c1`, the RP-LC retention time turned out to be 826 s.
Turning to `O=C(C1CCCCC1)N1CCC(c2noc(CO)n2)C1` (stereo unspecified), the RP-LC retention time stood at 656 s.
As for `Cc1cccc(N2CCN(C(=O)C3CCN(C(=O)C4Sc5ccccc5NC4=O)CC3)CC2C)c1` (stereo unspecified), the RP-LC retention time was 725 s.
Then `CC1(C(=O)NCc2cc(F)ccc2F)CCCCC(=O)N1` (stereo unspecified), with 674 s; and `Cc1nc2cc3c(cc2n1CC(=O)NC(C)c1ccc2c(c1)OCCCO2)OCCO3` (stereo unspecified), with 634 s.
The compound `COc1ccccc1CCN1CC(=O)N(c2ccc(C)c(C)c2)[C@@H]2CS(=O)(=O)C[C@@H]21` displayed an RP-LC retention time of 897 s.
Take `COc1ccc(OC)c(NC(=O)c2cc(S(=O)(=O)N3CCCC(C)C3)cn2C)c1` (stereo unspecified): the RP-LC retention time is 638 s.
Then `CCCNC(=O)N1[C@H]2CC[C@@H]1c1cnc(-c3ccc(F)cc3)nc1C2`, with 829 s; and `Cn1c(=O)n(Cc2cccc(Cl)c2)c(=O)c2cnc(-c3ccncc3)nc21`, with 922 s.
Turning to `COc1cccc(N2CCN(C(=O)C3CCCN(c4cnc5nccnc5c4)C3)CC2)c1` (stereo unspecified), the RP-LC retention time was determined as 737 s.
Consider `Cc1cc(F)ccc1NC(=O)C1CCCN1S(C)(=O)=O` (stereo unspecified), for which the RP-LC retention time worked out at 701 s.
The same measure for `COc1ccc(-c2nc3sc(C(=O)N(C)C)c(C)n3c2NC(C)(C)C)cc1`: 742 s; for `O=C(Nc1ccc2c(c1)OCCO2)C1CCN(C(=O)c2cccc(F)c2)CC1`: 697 s.
In the case of `COc1ccc(NC(=O)N2CCC(c3nc(C(=O)N4CCCC4)c(C)o3)CC2)cc1`, the RP-LC retention time was 727 s.
Then `O=C(Nc1ccc(Cl)cc1F)N1CCC(N2CC(F)(F)C[C@H]2COCC2CC2)CC1`, with 741 s; and `CC(C)Cc1ccc(S(=O)(=O)N2CCC(c3nc4cccnc4n3C)C2)cc1` (stereo unspecified), with 929 s.
With `CN(C)c1ccc(CNC(=O)CCC(=O)N2CCCn3nc(-c4cccn4C)cc32)cc1`, the RP-LC retention time is 599 s.
In the case of `CCCCC(=O)N1CCCN(C2=NS(=O)(=O)C(c3ccc(C)cc3)=C2C)CC1`, the RP-LC retention time was 855 s.
Compound `c1ccc(-c2nnc(-c3nc(NCCCN4CCC(N5CCCCC5)CC4)c4ccccc4n3)o2)cc1` displayed an RP-LC retention time of 550 s.
In turn, `CCOC(=O)CSc1nc2ccccc2[nH]1` gave an RP-LC retention time of 596 s.
Compound `CS(=O)(=O)N1CCCC1C(=O)Nc1cccc(F)c1` (stereo unspecified) had an RP-LC retention time of 730 s.
The same measure for `COc1ccc(NC(=O)CSc2nccc3c2ccn3C)c(OC)c1`: 687 s.
In turn, `CCOC(=O)C1CCN(c2cc3c(cc2NC(=O)NC(C)C)n(C)c(=O)n3C)CC1` returned an RP-LC retention time of 713 s.
`CCNc1cc(N2CCC(CCC(=O)NCc3ccc(Cl)cc3)CC2)ncn1` yielded an RP-LC retention time of 585 s.
As to `COc1ccc(Cl)cc1NC(=O)Cn1c(=O)n(-c2ccc(F)cc2)c(=O)c2c1cc(C)n2C`, the RP-LC retention time came out at 938 s.
Take `Cc1nnc2c(=O)n(CC(=O)NCc3ccccc3)c3cccnc3n12`: the RP-LC retention time came out at 654 s.
Regarding `Cc1nn(-c2nc(-c3ccc(Cl)cc3)cs2)c(C)c1CC(=O)NC(C)C`, the RP-LC retention time amounted to 1080 s.
As to `Cc1oc(-c2[nH]ncc2C(=O)N(C)C)cc1S(=O)(=O)N1CCC(C)CC1`, the RP-LC retention time was determined as 710 s.
The compound `Cc1cc(OC(C)C(=O)N2CCC3(O)CCCCC3C2)c2c3c(c(=O)oc2c1)CCC3` (stereo unspecified) had an RP-LC retention time of 820 s.
The compound `CC1CCN(c2cc(-c3nccn3CC(=O)NC3CCCCC3)ccn2)CC1` came in with an RP-LC retention time of 675 s.
`Cn1cc(CC(=O)NCc2ccccc2Cl)c2cccnc21` had an RP-LC retention time of 706 s.
Consider `O=C(Cn1c(=O)c2cccn2c2ccc(F)cc21)NCCN1CCCCCC1`, for which the RP-LC retention time worked out at 623 s.
`O=S(=O)(Cc1ccccc1F)N1CCc2nnc(C3CC3)n2CC1` had an RP-LC retention time of 626 s.
On to `O=C(O)CCC1CCN(S(=O)(=O)c2cccc(F)c2)CC1`, for which the RP-LC retention time came to 765 s.
The compound `CCN1CCN(c2ccc(NC(=O)C(C)(C)C)c(C(=O)O)c2)CC1` showed an RP-LC retention time of 594 s.
For `CC(NC(=O)c1cn(-c2ncccc2-c2nc(-c3ccccc3)no2)cn1)c1ccccc1` (stereo unspecified), the RP-LC retention time came out at 966 s.
Regarding `O=C(Nc1cnc(-c2cccnc2)nc1)C1CCCCC1`, the RP-LC retention time was 681 s.
`CSc1ccc(CNC(=O)CCc2c(-c3ccc(Br)cc3)nc3ccccn23)cc1` had an RP-LC retention time of 714 s.
As to `Cc1csc(-c2ccc(N3CCN(C(=O)c4cc(Cl)ccc4F)CC3)nc2)n1`, the RP-LC retention time was determined as 943 s.
`Cc1cccc(Oc2cc(N3CCC(C(=O)NCCCOC(C)C)CC3)ncn2)c1C`: the RP-LC retention time was 883 s.
In turn, `O=C(NC1CC1)c1ccccc1OCC1CCCN(Cc2ccc3c(c2)CCO3)C1` (stereo unspecified) gave an RP-LC retention time of 580 s.
In turn, `Cc1cc(NC(=O)CN2CCc3[nH]c4c(C)c(C)ccc4c(=O)c3C2)ccc1F` gave an RP-LC retention time of 626 s.
The same measure for `CC(C(=O)N1CCCCC1)n1ccc2cc(S(=O)(=O)N3CCCCCC3)ccc21` (stereo unspecified): 1010 s.
The same measure for `CC(C)CN1C(=O)c2cccn2CC1CNC(=O)c1ccco1` (stereo unspecified): 672 s.
`CC(C)n1ccc(-c2nnc(NC(=O)C3CCCN(S(C)(=O)=O)C3)o2)n1` (stereo unspecified) displayed an RP-LC retention time of 609 s.
In turn, `Cc1ccc(NC(=O)NCC2CCOCC2)cc1F` registered an RP-LC retention time of 710 s.
As for `CCCCOc1ccc(C(=O)NC2(c3nc(C)no3)CCCCC2)cc1`, the RP-LC retention time worked out at 1080 s.
For the compound `Cc1oc(C(C)C)nc1C(=O)NC1CCCCC1`, the RP-LC retention time came out at 1020 s.
Compound `CC1(C(=O)Oc2ccc(Cl)cc2)Cc2ccccc2C(=O)O1` (stereo unspecified) yielded an RP-LC retention time of 942 s.
Then `CCOC(=O)c1[nH]c(C)c(CCC(=O)N2CCC(C(=O)NCCCOC(C)C)CC2)c1C`, with 706 s; and `c1cncc(-c2nc(-c3ccc(-n4ccnc4)nc3)no2)c1`, with 597 s; and `CCc1nn(CC)c(=O)c2cc(S(=O)(=O)NCc3ccc(F)c(Cl)c3)cn12`, with 1010 s.
As for `COCCCNC(=O)C1CCN(c2cncnc2N2CCCCC2)CC1`, the RP-LC retention time was determined as 606 s.
In turn, `CCOc1ccc(S(=O)(=O)N2CCCC(C(=O)NCCOC)C2)cc1` (stereo unspecified) yielded an RP-LC retention time of 709 s.
`CCN1CCN(CCCNC(=O)C2CCCN(C(=O)c3[nH]c(C)c(C(=O)OC(C)C)c3C)C2)CC1` (stereo unspecified) showed an RP-LC retention time of 579 s.
The same measure for `O=C(NCC1CCN(c2cc(-c3cccnc3)[nH]n2)CC1)c1ccc2c(c1)OCO2`: 600 s; for `CC(C)(C)OC(=O)COC(=O)c1cn(-c2ccc(F)cc2)c(=O)c2ccccc12`: 1140 s.
For the compound `COc1ccc(-c2nc3cccnc3n2C2CCN(C(=O)NC3CCCC3)C2)cc1` (stereo unspecified), the RP-LC retention time turned out to be 879 s.
Compound `CCOc1ccccc1-c1noc(Cn2cnc3c(cnn3-c3ccc(CC)cc3)c2=O)n1` returned an RP-LC retention time of 1170 s.
`CCC(C)C1Nc2ccc(C(=O)NCCCN3CCOCC3)cc2NC1=O` (stereo unspecified) registered an RP-LC retention time of 584 s.
On to `CC(C)CN1CCN(C(=O)CN2CCN(Cc3ccccc3)C2=O)CC1`, for which the RP-LC retention time was 579 s.
In turn, `CCN1CCN(c2ncc3c(n2)CCN(Cc2ccc(Cl)c(F)c2)C3)CC1` returned an RP-LC retention time of 575 s.
Take `CCCC1c2nccn2CCCN1C(=O)c1cc(C2CC2)[nH]n1` (stereo unspecified): the RP-LC retention time worked out at 596 s.
For the compound `CC(=O)Nc1nsc(N2CCC(C(=O)NCc3cccs3)CC2)n1`, the RP-LC retention time was found to be 610 s.
`Clc1ccc(Cl)c(-c2ccc(CNCc3ccco3)o2)c1` came in with an RP-LC retention time of 737 s.
Turning to `COc1ccc(N2CCN(c3cc(SCC(=O)NCCC(C)C)ncn3)CC2)cc1`, the RP-LC retention time is 873 s.
`COCc1cc(=O)n(CC(=O)Nc2cc(OC)c(OC)c(OC)c2)c(N2CCOCC2)n1`: the RP-LC retention time was determined as 734 s.
Then `CCOC(=O)C1CCN(C(=O)c2sc(Nc3cccc(C)n3)nc2C)CC1`, with 774 s; and `Cc1nccn1-c1ccc(=O)n(CCNC(=O)c2cccc(C(F)(F)F)c2)n1`, with 551 s.
For the compound `Cc1nnc2cc(N3CCN(S(=O)(=O)c4ccccc4F)CC3)cnn12`, the RP-LC retention time stood at 674 s.
`COc1ccc(-c2nc3cc(C)ccn3c2NC(=O)COc2ccc(Cl)cc2Cl)cc1`: the RP-LC retention time amounted to 780 s.
Turning to `Fc1ccc(F)c(-c2nc(-c3ccc(-n4cccn4)nc3)no2)c1`, the RP-LC retention time was determined as 1170 s.
In turn, `O=C(NCc1cccs1)c1cccn1Cc1noc(-c2ccc(Cl)cc2)n1` showed an RP-LC retention time of 1080 s.
Consider `Cc1ccc(CN2CCN(C3CCN(C(=O)Nc4ccc(C)cc4)CC3)C(=O)C2=O)cc1`, for which the RP-LC retention time is 768 s.
Compound `CN(C)S(=O)(=O)c1ccc(-c2nnc(C(=O)NCCCN3CCCC3)o2)cc1` displayed an RP-LC retention time of 593 s.
For the compound `CN(CC1CCCO1)S(=O)(=O)c1ccc(C(=O)Nc2sc3c(c2C#N)CCC3)cc1` (stereo unspecified), the RP-LC retention time came out at 957 s.
`CCCn1cnc2ccc(-c3noc(-c4ccccc4F)n3)cc21` yielded an RP-LC retention time of 812 s.
`CN1C(=O)Cc2cc(C(=O)NC3CCN(Cc4ccccc4)CC3)ccc21` showed an RP-LC retention time of 892 s.
The compound `NC(N)=N/N=C(\c1ccc(Cl)cc1)C1CC1` displayed an RP-LC retention time of 665 s.
For the compound `CCOCC(=O)N1CC(c2nc(CCOCC3CCOCC3)no2)C1`, the RP-LC retention time was found to be 644 s.
In turn, `CCCNC(=O)C1CCCN(c2ccc(SCC(=O)Nc3ccc(F)cc3F)nn2)C1` (stereo unspecified) displayed an RP-LC retention time of 657 s.
